# From patent publication US20080113908A1, “Use of CRF receptor agonists for the treatment or Prophylaxis of diseases, for example Neurodegenerative diseases” (SmithKline Beecham plc, priority 2000, published 2008)
# Read-outs that look alike come from different tables or passages of the source.
# Tests used:
# PI 3-kinase = conditions: cited from earlier work
# GSK-3β = assay: Western blot of serine-9-phosphorylated GSK-3β (FIG. 5); format: cell-based, rat; conditions: compound alone, 2 hours; CRF 10 nM, LY 294002 75 μM, FSK 30 μM
# Source text: It was thought that CRF receptor agonists might interact with the PI 3-kinase signalling pathway and exert their neuroprotective effect by phosphorylating and inhibiting the protein GSK-3β,which is pro-apoptotic (M. Pap and G. M. Cooper, J. Biol. Chem., 273(32), 19929-19932, 1998; and M. Hetman et al. J. Neurosci., 1st Apr. 2000, 20(7), 2567-2574; discussed hereinabove). In order to confirm this, the level of GSK-3β phosphorylated at serine-9 (e.g. see D. A. E. Cross, Nature, 378, 785-789, 1995) in control cultures of cerebellar granule neurones was measured using Western blots, and compared to the level of phospho-GSK-3β in the presence of CRF as a model CRF receptor agonist and/or in the presence of the PI 3-kinase inhibitor LY 294002. In order to determine whether elevation of cAMP was involved in any effect, the level of phospho-GSK-3β in cultures in the presence of the known cAMP-elevating agent forskolin (FSK, obtainable e.g. from Calbiochem.) with or without LY 294002 present was also measured. The forskolin acts as a benchmark for cAMP-related effects.
# The method used was as follows. […]
# Phosphorylation of GSK-3β was detected using an antibody to serine-9-phosphorylated GSK-3β (anti-phospho-GSK-3β (Ser9)) available as catalogue no. […]
# [1] = system: cerebellar granule neurones; format: cell-based, rat; conditions: 48 h, MTT, sham-treated = 100%
# Procedure: Cerebellar granule neurones were used in the examples to test neuroprotection by CRF receptor agonists. Cerebellar granule neurones (CGNs) undergo apoptosis during the first few weeks of postnatal life, and in culture require mildly depolarising concentrations of KCl (25 mM) for their survival and maturation (S. R: D'Mello et al., Proc. Natl. Acad. Sci. USA 90, 10989-10993, 1993). The growth signal provided by KCl depends upon activation of the phosphatidylinositol 3-kinase (PI 3-kinase) pathway, and pharmacological inhibition of PI 3-kinase in differentiated granule neurones leads to apoptotic death in the CGNs (T. M. Miller et al., J. Biol. Chem., 272, 9847-9853, 1997). Thus, cultured CGNs represent a suitable model to study mechanisms of programmed cell death, and to identify putative neuroprotective signalling pathways.
# Assay 1: Cerebellar granule neurones prepared from postnatal day 8 Sprague Dawley rat pups were used for experiments on death induced by inhibition of PI 3-kinase. General culture methods are described in S. D. Skaper et al. in Methods in Neurosciences, Vol. 2 (Conn P. M., ed), pp. 17-33. Academic Press, San Diego, 1990. At 8-9 days in vitro (DIV), granule neurone cultures were shifted to phenol red-free Dulbecco's modified Eagle's medium lacking serum, and containing 0.05% bovine serum albumin and 25 mM KCl. Death was induced by addition of the PI 3-kinase inhibitor LY 294002 (75 μM). CRF or CRF agonist peptides (urotensin 1, urocortin, sauvagine) were added at different concentrations (from 0.3nM to 300 nM or 1000 nM) together with LY 294002. Forty-eight hours later neuronal survival was quantified by a colorimetric reaction MTT. Absolute MTT values obtained were normalised for small differences in interexperiment plating densities by scaling to the mean of sham-treated sister cultures (defined as 100%).
# Results are shown in Table 1 below and in graphical form in FIG. 1, which show the percentage mean neuronal survival (and standard deviation), when in the presence of the relevant CRF receptor agonists and LY 294002, as a function of agonist concentration. […] Urotensin 1, urocortin and sauvagine were also neuroprotective albeit with lower potency (<1 μM).
# [2] = system: spontaneous hypertensive rats (SHR); assay: Distal middle cerebral artery occlusion (MCAO), icv dosing (FIG. 7); format: in vivo; conditions: 10 μg/rat icv, 15 min and 2 hours post MCAO; 24 h permanent MCAO
# Procedure: The animal protocols are as follows.
# Focal ischemia experiments were performed on male spontaneously hypertensive rats (SHR; Taconic Farms, Germantown, N.Y., US) weight range 280-340 g. Body temperature was maintained at 37° C. during all surgical procedures and during recovery from anesthesia (i.e., until normal locomotor activity returned). Animals were anesthetized with pentobarbital (65 mg/kg, i.p.) and underwent permanent, right middle cerebral artery occlusion (MCAO) for 24 h as described previously (F. C. Barone et al., Neuroscience & Biobehavioral Reviews, 16 (1992) 219-33, and F. C. Barone et al., Stroke, 29 (1998) 1937-50). Body temperature was monitored throughout the surgical procedure by a rectal thermometer, and the animals maintained normothermic (37±0.5° C.) via a heating blanket controlled by the thermometer. A needle temperature probe was also inserted into the left temporalis muscle to give an indirect measurement of brain temperature. Actual core and temporalis temperature values were recorded at the time of MCA occlusion. […]
# The rats were allowed to recover from surgery on a heating pad while containing to be under the influence of the pentobarbital anesthesia. Once animals were able to right themselves and begin spontaneous movement, they were placed in cages on the heating pads and monitored for any distress until fully recovered from anesthesia. […]
# [3] = system: cerebellar granule neurones; assay: Assay 3: intracellular cyclic AMP enzyme immunoassay; format: cell-based, rat; conditions: agonist 0 to 30 nM, 15 min, 0.5 mM IBMX
# Procedure: Assay 3: The production of cAMP by the CRF receptor agonist peptides CRF, urotensin 1, urocortin and sauvagine was measured as follows. This assay can be used analogously for any putative CRF receptor agonists including non-peptide agonists.
# Intracellular cyclic AMP was measured with a cAMP 2-site enzyme immunoassay system (trade mark BIOTRAK, commercially available from Amersham Pharmacia Biotech, PO Box 164, Rainham, Essex RM13 8JZ, United Kingdom, Amersham catalogue number RPN225), based upon the use of a sensitive and highly specific capture antibody for cyclic AMP:
# Cerebellar granule neurones were seeded in polylysine-coated […] plates, 3.5×10^5 cells per 48-well, in Basal medium Eagle's containing 10% fetal calf serum, 25 mM KCl, and antibiotics. At 8-9 days in vitro, granule neurone cultures were shifted to serum-free plating medium (0.4 ml) with 0.5 mM IBMX (to inhibit the breakdown of cyclic AMP) for 15 min (37° C.). Wells then received 0.1 ml of test peptide (5× final concentration). Generally 1 μM is the preferable final concentration for a putative CRF agonist under test, though different (e.g. lower) concentrations can be used as shown for the peptide agonists in FIG. 3. Incubation was continued for 15 min. Test medium was removed and the plate placed on dry ice, and stored at −140° C. Cyclic AMP analysis was performed the following day.
# Cells were then lysed with the reagent provided with the BIOTRAK kit. Intracellular content of cyclic AMP in the lysates was assayed following the manufacturer's instructions. A standard curve was constructed using the cyclic AMP calibration provided, with the quantity of bound cyclic AMP being inversely proportional to the amount of second (chromogenic) antibody bound to the reaction wells. The colour product was read with an ELISA plate reader, and was a function of the amount of cyclic AMP in the unknown sample.
Molecule,IC50 (PI 3-kinase),IC50 PI 3-kinase activity (PI 3-kinase),phospho-GSK-3β level compared to control CN (GSK-3β),Mean survival % ([1]; agonist 0.3 nM with LY 294002 75 μM),Mean survival % ([1]; agonist 1 nM with LY 294002 75 μM),Mean survival % ([1]; agonist 3 nM with LY 294002 75 μM),Mean survival % ([1]; agonist 10 nM with LY 294002 75 μM),Mean survival % ([1]; agonist 30 nM with LY 294002 75 μM),Mean survival % ([1]; agonist 100 nM with LY 294002 75 μM),Mean survival % ([1]; agonist 300 nM with LY 294002 75 μM),Mean survival % ([1]; agonist 1000 nM with LY 294002 75 μM),infarct size [2],numerical score for neurological deficits [2],cAMP synthesis induced by agonist (FIG. 3) [3]
"O=c1cc(N2CCOCC2)oc2c(-c3ccccc3)cccc12 [LY 294002, 2-(4-morpholinyl)-8-phenyl-4H-1-benzopyran-4-one]",1400 nM,0.43 µg/mL,a decrease compared to control,–,–,–,–,–,–,–,–,–,–,–
"NDDPPISIDLTFHLLRNMIEMARIENEREQAGLNRKYLDEV [Urotensin 1, Urotensin 1 (teleost fish, Sigma cat. no. U-7253), CRF receptor agonist peptide]",–,–,–,42%,52.89%,68%,74.44%,71.67%,71.17%,73.83%,79.17%,70-80 mm^3,9,cAMP production increased with agonist concentration
